The values that follow come from article PMC12096079, “m^6A modification is incorporated into bacterial mRNA without specific functional benefit” (Nucleic Acids Research, 2025).

For the assay, the target named is YafS (Escherichia coli, UniProt P75672). In words: intrinsic tryptophan fluorescence quenching titration (ex […] nm, em […] nm). It is filed as binding.
Chain of YafS (P75672 whole entry): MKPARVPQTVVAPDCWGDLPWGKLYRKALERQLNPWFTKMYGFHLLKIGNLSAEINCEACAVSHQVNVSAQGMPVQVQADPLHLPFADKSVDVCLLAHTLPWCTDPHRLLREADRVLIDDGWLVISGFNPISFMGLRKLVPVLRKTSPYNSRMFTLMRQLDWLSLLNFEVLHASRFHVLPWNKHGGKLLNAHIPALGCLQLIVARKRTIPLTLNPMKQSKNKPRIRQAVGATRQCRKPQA

The term Kd denotes the free concentration of one partner at which half of the binding sites on the other are occupied at equilibrium, for simple one-to-one binding. A low value points to tighter binding. In the case of `C[S+](CC[C@H](N)C(=O)O)C[C@H]1O[C@@H](n2cnc3c(N)ncnc32)[C@H](O)[C@@H]1O` (stereo partly shown) [SAM], the affinity, expressed as Kd, was 0.68 ± 0.1 µM.
